Assay results published in patent US20250090539A1, “COMBINATION TREATMENT OF CANCERS” (Repare Therapeutics Inc., priority 2023, published 2025).
Where a name gives a salt, the structure may show the parent alone. Read-outs that look alike come from different tables or passages of the source.

What was measured:
[1] = system: SUM149PT BRCA1 mutated xenograft; assay type: in vivo; conditions: single agents at low doses: camonsertib 10 mg/kg PO 3 days on/4 days off; gemcitabine 20 mg/kg QW; 28 days
Experimental: The relative tumor xenograft volume (FIG. 4A) and change in body weight in mice treated (FIG. 4B) is shown for mice treated with gemcitabine at 20 mg/kg QW on Day 1 and/or camonsertib at 10 mg/kg PO on different schedules weekly for 28 days. Results are expressed as mean±SEM, N=7/group in female NOD-SCID mice. Statistical differences were established by Student's T-test (GraphPad Prism v9) with Welch's correction; ns=not significant, *p<0.05, **p<0.01.
A xenograft model was employed to assess the effect of camonsertib in combination with gemcitabine on tumor formation in an animal model. Mice harboring established tumors were treated with a vehicle control, camonsertib (10 mg/kg once per day with 3 days on/4 days off), gemcitabine (20 mg/kg once per week), or a combination of both camonsertib (once per day selected from 3 days on/4 days off, 2 days on/5 days off, or 1 day on/6 days off) and gemcitabine (once per week) for 28 days.
Relative tumor xenograft volume of the mice treated with gemcitabine at 20 mg/kg QW on Day 1 and/or camonsertib at 10 mg/kg PO on different schedules weekly for 28 days is shown in FIG. 4A and the change in body weight is shown in FIG. 4B. Results are expressed as mean±SEM, N=7/group in female NOD-SCID mice. Statistical differences were established by Student's T-test (GraphPad Prism v9) with Welch's correction; ns=not significant, *p<0.05, **p<0.01.

[2] = system: SUM149PT breast cancer cell line; experiment: CellTiter Glo cell viability / ZIP synergy in BRCA1mut model; assay type: cell-based; conditions: single agent at the same low nM doses
Experimental: FIGS. 2A-2B are charts showing the ZIP synergy score matrix in a BRCA1mut model treated with gemcitabine at low-nanomolar concentrations (15 nM) synergizing with camonsertib 7.5 nM (2 days on (FIG. 2A) or 3 days on (FIG. 2B)). ZIP synergy scores greater than 10 indicate drug synergy and scores less than −10 indicates antagonism. Mean CTG cell viability data from 3 independent experiments were processed with SynergyFinder (https://synergyfinder.fimm.fi/; PMIDs: 35580060, 26949479). Dotted lines indicated doses exerting maximum synergy.
FIGS. 3A-3B show the synergy of gemcitabine with camonsertib in a BRCA1 mut model. […] FIG. 3B is a graph of the viability of the SUM149PT treated with the indicated compounds and schedules. Data (circles) from three independent experiments is provided with mean (bars)±SD. The P value calculated with an unpaired two-tailed Student's t-test. Cell viability was read out at day 8 with a CellTiter Glo (CTG) assay.
To assess the synergy between camonsertib and gemcitabine in a BRCA1-mutated cancer cell model in vitro, a SUM149PT breast cancer cell line was employed. The combination was administered at various dosing schedules—1, 2, or 3 day treatment with camonsertib combined with a single 4 h dose of gemcitabine (FIG. 3A).

[3] = maximum tolerated dose in mice; assay type: in vivo
[4] = humans, cited from earlier work

C[C@@H]1COCCN1c1cc([C@]2(O)C[C@H]3CC[C@@H](C2)O3)c2cnn(-c3cc[nH]n3)c2n1 [camonsertib, (1R,5S)-3-[6-[(3R)-3-methylmorpholin-4-yl]-1-(1H-pyrazol-5-yl)pyrazolo[3,4-b]pyridin-4-yl]-8-oxabicyclo[3.2.1]octan-3-ol]
anti-tumor activity (relative tumor xenograft volume) [1]: reduced activity | cell viability (CTG, day 8) [2]: only modest effect | MTD [3]: 30 mg/kg

Nc1ccn([C@@H]2O[C@H](CO)[C@@H](O)C2(F)F)c(=O)n1 [gemcitabine, 2-Deoxy-2,2-difluorocytidine hydrochloride]
anti-tumor activity (relative tumor xenograft volume) [1]: reduced activity | cell viability (CTG, day 8) [2]: only modest effect | MTD ([3]; mouse, in vivo, read-out: MTD): 100 mg/kg | mean gemcitabine peak plasma concentration ([4]; 800 mg/m^2): 24 µM | mean gemcitabine peak plasma concentration ([4]; 1000 mg/m^2): 32 µM
